{"source": "ChEMBL document CHEMBL1275495", "about": "“Clinical isolates of Aspergillus species remain fully susceptible to voriconazole in the post-voriconazole era” (2008)", "format_in_all_cases": "functional", "key": {"Aspergillus niger": {"tested_on": "Aspergillus niger", "assay": "Antifungal activity against Aspergillus niger clinical isolate obtained from invasive aspergillosis patient after 48 hrs by CLSI method"}, "Aspergillus flavus": {"tested_on": "Aspergillus flavus", "assay": "Antifungal activity against Aspergillus flavus clinical isolate obtained from invasive aspergillosis patient after 48 hrs by CLSI method"}, "Aspergillus sp. [1]": {"tested_on": "Aspergillus sp.", "assay": "Antifungal activity against Aspergillus sp. clinical isolate obtained from invasive aspergillosis patient after 48 hrs by CLSI method"}, "Aspergillus sp. [2]": {"tested_on": "Aspergillus sp.", "assay": "Antifungal activity against Aspergillus sp. selected after drug exposure after 48 hrs by CLSI method"}, "Aspergillus terreus": {"tested_on": "Aspergillus terreus", "assay": "Antifungal activity against Aspergillus terreus clinical isolate obtained from invasive aspergillosis patient after 48 hrs by CLSI method"}, "Aspergillus fumigatus": {"tested_on": "Aspergillus fumigatus", "assay": "Antifungal activity against Aspergillus fumigatus clinical isolate obtained from invasive aspergillosis patient after 48 hrs by CLSI method"}, "Aspergillus": {"tested_on": "Aspergillus", "assay": "Antifungal activity against Aspergillus species after 48 hrs by CLSI method"}, "Aspergillus sp. [3]": {"tested_on": "Aspergillus sp.", "assay": "Antifungal activity against Aspergillus sp. clinical isolate obtained from invasive aspergillosis patient selected after drug exposure after 48 hrs by CLSI method"}}}
{"compound": "C[C@@H](c1ncncc1F)[C@](O)(Cn1cncn1)c1ccc(F)cc1F", "note": "[VORICONAZOLE]", "values": [{"measurement": "Activity", "setting": "Aspergillus niger", "result": 0.76, "unit": "µg/mL"}, {"measurement": "Activity", "setting": "Aspergillus flavus", "result": 0.76, "unit": "µg/mL"}, {"measurement": "MIC", "setting": "Aspergillus sp. [1]", "result": 0.57, "unit": "µg/mL"}, {"measurement": "MIC50", "setting": "Aspergillus sp. [1]", "result": 0.5, "unit": "µg/mL"}, {"measurement": "MIC90", "setting": "Aspergillus sp. [1]", "result": 1, "unit": "µg/mL"}, {"measurement": "MIC", "setting": "Aspergillus sp. [2]", "result": 0.4, "unit": "µg/mL"}, {"measurement": "MIC50", "setting": "Aspergillus sp. [2]", "result": 0.25, "unit": "µg/mL"}, {"measurement": "MIC90", "setting": "Aspergillus sp. [2]", "result": 0.5, "unit": "µg/mL"}, {"measurement": "Activity", "setting": "Aspergillus terreus", "result": 0.76, "unit": "µg/mL"}, {"measurement": "Activity", "setting": "Aspergillus fumigatus", "result": 0.46, "unit": "µg/mL"}, {"measurement": "MIC", "setting": "Aspergillus", "result": 0.39, "unit": "µg/mL"}, {"measurement": "MIC50", "setting": "Aspergillus", "result": 0.25, "unit": "µg/mL"}, {"measurement": "MIC90", "setting": "Aspergillus", "result": 0.5, "unit": "µg/mL"}, {"measurement": "MIC", "setting": "Aspergillus sp. [3]", "result": 0.61, "unit": "µg/mL"}, {"measurement": "MIC50", "setting": "Aspergillus sp. [3]", "result": 0.5, "unit": "µg/mL"}, {"measurement": "MIC90", "setting": "Aspergillus sp. [3]", "result": 1, "unit": "µg/mL"}]}
